Values quoted from earlier work, collected in patent publication US7276520B2, “Bicyclic piperidine derivatives as melanocortin-4 receptor agonists” (Merck & Co., Inc., priority 2003, dated 2007).

Key:
erectile dysfunction = settings: for duration of effect / onset of action: after an oral dose; for share of men/patients in whom the drug is effective (adequate response): oral
[1] = system: males with psychogenic erectile dysfunction
[2] = in vivo, po

| Compound | duration of effect (erectile dysfunction) | onset of action (erectile dysfunction) | share of men/patients in whom the drug is effective (adequate response) (erectile dysfunction) | response rate ([1]; injected intramuscularly or subcutaneously, psychogenic erectile dysfunction) | duration of action ([1]; subcutaneous injection) | time to onset of erection ([1]; subcutaneous injection) | absorption into the systemic circulation [2] |
| --- | --- | --- | --- | --- | --- | --- | --- |
| Cc1ccc(N(CC2=NCCN2)c2cccc(O)c2)cc1 [phentolamine] | 2 h | 5 to 30 min | 35-40% |  |  |  |  |
| CCCc1nn(C)c2c(=O)[nH]c(-c3cc(S(=O)(=O)N4CCN(C)CC4)ccc3OCC)nc12 [sildenafil] | about 4 hours | 30 to 60 min | about 70% |  |  |  |  |
| Ac-Nle-c[Asp-His-DPhe-Arg-Trp-Lys]-NH2 [MT-II] |  |  |  | 75% | approximately 2.5 hours | 10 to 20 min | not absorbed into the systemic circulation |
